# System: Met e 1
# Assay: ELISA of Met e 1-specific IgG1 and IgG2a in serum of BALB/c mice immunized with mimotope-KLH conjugates
# Assay type: in vivo, Metapenaeus ensis
# Conditions: KLH conjugate in BALB/c mice; compared with the Met e 1 epitope (a.a. 251-270) positive control
# Protocol: One mimotope peptide was chosen from each of clusters 1-6 (Table 3) and commercially synthesized (Genscript). The mimotopes were conjugated to keyhole limpet hemocyanin (KLH) using Imject EDC mcKLH Spin Kit (Thermo Scientific) according to manufacturer's instructions. Female BALB/c mice (n=4; 5-6 weeks) were immunized subcutaneously with a mimotope conjugate (50 μg in 200 μl PBS) emulsified in Complete Freund's adjuvant on day 0 and Incomplete Freund's adjuvant on days 14 and 21. Blood samples were collected on day 28 from tail vein of the mice. A Der p 1 mimotope (KGIPNTKAP) (Szalai et al., Mot Immunol, 2008; 45, 1308-1317) and an IgE epitope of Met e 1 ([…]; a.a. 251-270) were also included as negative and positive controls, respectively. All animal protocols were approved by the Animal Experimentation Ethics Committee, CUHK, in accordance with the Department of Health (Government of Hong Kong Special Administrative Region, HKSAR) guidelines in Care and Use of Animals. All experiments were performed under licenses granted from the HKSAR Government.
# ELISA was performed as previously described (Wai et al., PLoS One, 2014; 9, e111649) to detect Met e 1-specific IgG antibodies. […] 100 μl of 0.1M sulfuric acid was added to each well to stop the reaction after 10 min of incubation and the optical density at 450 nm was determined using microplate reader (BioRad Model 680). […]
sequence,measurement,value
GTKLQHFRQ (Synthetic Cluster 4 mimotope) [Cluster 4 mimotope of Met e 1; selected for in vivo verification],capacity to induce Met e 1-specific antibodies,lower capacity

# From US9920100B2, “Mimotopes of tropomyosin for use in immunotherapy for shellfish and/or arthropod allergy” (THE REGENTS OF THE UNIVERSITY OF CALIFORNIA, priority 2016, dated 2018)
